Two compounds from patent US20240207258A1, “HETEROCYCLIC PDK1 INHIBITORS FOR USE TO TREAT CANCER” (Viracta Therapeutics, Inc., priority 2015, published 2024) can be followed below.

Test [1] deals with T1, Full-length phosphorylated PDK1 (Homo sapiens, UniProt O15530).
T1 sequence (O15530 1-556): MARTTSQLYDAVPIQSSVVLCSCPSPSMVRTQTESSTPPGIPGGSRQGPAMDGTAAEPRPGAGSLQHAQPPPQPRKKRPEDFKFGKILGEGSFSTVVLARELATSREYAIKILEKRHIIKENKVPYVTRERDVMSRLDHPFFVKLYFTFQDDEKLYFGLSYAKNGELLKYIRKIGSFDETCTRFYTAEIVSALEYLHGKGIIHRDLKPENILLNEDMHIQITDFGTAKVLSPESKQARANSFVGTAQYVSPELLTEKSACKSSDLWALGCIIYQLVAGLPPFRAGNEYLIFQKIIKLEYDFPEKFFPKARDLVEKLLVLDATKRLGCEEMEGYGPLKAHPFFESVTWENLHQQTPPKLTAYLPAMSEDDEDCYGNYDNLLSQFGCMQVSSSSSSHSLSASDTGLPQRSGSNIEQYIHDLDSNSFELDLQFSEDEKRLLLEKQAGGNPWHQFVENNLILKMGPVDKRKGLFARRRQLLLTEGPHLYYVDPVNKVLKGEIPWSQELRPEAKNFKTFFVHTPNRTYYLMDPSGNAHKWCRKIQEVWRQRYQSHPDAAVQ
Briefly: Fluorescence polarization PIF-tide binding assay. The conditions noted are these: PDK1 saturating amounts of compound, FIG. 13C. (In fluorescence polarisation assays a small probe gives low polarisation when free and higher when bound to something large.)

Test [2] has as its system MV4-11. Briefly: MTS cell proliferation assay, MV4-11. Type of test: cell-based, human. The conditions noted are these: Homo sapiens; MV4-11, 72 hr; read-out: MTS proliferation assay. As to the method:
Cell proliferation was measured using the CellTiter 96 Aqueous Non-Radioactive Cell Proliferation Assay (Promega). […] MTS is bioreduced by cells into a formazan product that is soluble in tissue culture medium. The absorbance of the formazan product at 490 nm can be measured directly from assay plates without additional processing. The quantity of formazan product as measured by the amount of 490 nm absorbance is directly proportional to the number of living cells in culture. Cells were seeded into 96-well or 384-well clear plates in a volume of 200 μL (96-well) or 50 μL (384-well) at optimized densities ranging from 1,000 to 40,000 cells per well for 96-well plates or 1,200 to 25,000 cells per well for 384-well plates depending on cell-line. After 4-6 hr recovery, serially diluted compounds in DMSO were added to the cells using (0.1% v/v final DMSO concentration). Cells were then grown at 37° C. in a humidified incubator with 5% CO2 for 72 hr. A 20:1 [3-(4,5-dimethylthiazol-2-yl)-5-(3-carboxymethoxyphenyl)-2-(4-sulfophenyl)-2H-tetrazolium](MTS):phenazine methosulfate (PMS) solution in DPBS was made immediately before use, added to each well, and cells were incubated for 1.5 hr at 37° C. The absorbance at 490 nm was then measured using a platereader. Absorbance values were normalized as percent of control (cells incubated in the presence of 0.1% v/v DMSO). Sigmoidal dose-response curves were plotted using log(inhibitor) vs. response—Variable slope (four parameters) model with a top value constrained to 100% (GraphPad Prism version 6.00 for Windows, GraphPad Software, La Jolla California USA). […] To determine potential of compounds of the invention to affect viability of hematological cancers, cell lines representing various tumor types were selected and tested. […] In addition, two murine cell lines were tested: A20 […].

For test [3], the system named is U-2932. Description: MTS cell proliferation assay, U-2932. The conditions noted are these: Homo sapiens, U2932; U-2932, 72 hr. The format is cell-based. As to the method: Cell proliferation was measured using the CellTiter 96 Aqueous Non-Radioactive Cell Proliferation Assay (Promega). The CellTiter 96® AQueous Assay is composed of solutions of a tetrazolium compound [3-(4,5-dimethylthiazol-2-yl)-5-(3-carboxymethoxyphenyl)-2-(4-sulfophenyl)-2H-tetrazolium, inner salt; MTS] and an electron coupling reagent (phenazine methosulfate) PMS. MTS is bioreduced by cells into a formazan product that is soluble in tissue culture medium. The absorbance of the formazan product at 490 nm can be measured directly from assay plates without additional processing. The quantity of formazan product as measured by the amount of 490 nm absorbance is directly proportional to the number of living cells in culture. Cells were seeded into 96-well or 384-well clear plates in a volume of 200 μL (96-well) or 50 μL (384-well) at optimized densities ranging from 1,000 to 40,000 cells per well for 96-well plates or 1,200 to 25,000 cells per well for 384-well plates depending on cell-line. After 4-6 hr recovery, serially diluted compounds in DMSO were added to the cells using (0.1% v/v final DMSO concentration). Cells were then grown at 37° C. in a humidified incubator with 5% CO2 for 72 hr. A 20:1 [3-(4,5-dimethylthiazol-2-yl)-5-(3-carboxymethoxyphenyl)-2-(4-sulfophenyl)-2H-tetrazolium](MTS):phenazine methosulfate (PMS) solution in DPBS was made immediately before use, added to each well, and cells were incubated for 1.5 hr at 37° C. The absorbance at 490 nm was then measured using a platereader. Absorbance values were normalized as percent of control (cells incubated in the presence of 0.1% v/v DMSO). Sigmoidal dose-response curves were plotted using log(inhibitor) vs. response—Variable slope (four parameters) model with a top value constrained to 100% (GraphPad Prism version 6.00 for Windows, GraphPad Software, La Jolla California USA). […] Curves for compounds that reached a plateau were matched exactly to the measurement points. […] To determine potential of compounds of the invention to affect viability of hematological cancers, cell lines representing various tumor types were selected and tested. Human cell lines tested were: MOLM-13 (acute myeloid leukemia (AML)), MV4-11 (AML), U-2932 (ABC-diffuse large B cell lymphoma), U-937 (histiocytic lymphoma), U-266 (multiple myeloma), RPMI-8226 (multiple myeloma), CMK (megakaryoblastic cell line), SU-DHL-4 (GCB-diffuse large B cell lymphoma), KG1 (AML), Mec-1 (chronic B-cell leukemia), MOLM-16 (AML), Jeko (B-cell lymphoma), WSU-DLCL2 (B-cell lymphoma), JJN3 (plasma cell leukemia), SU-DHL-6 (GCB-diffuse large B cell lymphoma), and Z-138 (mantle cell lymphoma). In addition, two murine cell lines were tested: A20 […].
In general terms: Formazan colour is commonly taken as a measure of viable cells.

For test [4], the system named is CMK. Briefly: MTS cell proliferation assay, CMK. The format is cell-based. The conditions noted are these: Homo sapiens, 72 hr. As to the method: (§1) Cell proliferation was measured using the CellTiter 96 Aqueous Non-Radioactive Cell Proliferation Assay (Promega). The CellTiter 96® AQueous Assay is composed of solutions of a tetrazolium compound [3-(4,5-dimethylthiazol-2-yl)-5-(3-carboxymethoxyphenyl)-2-(4-sulfophenyl)-2H-tetrazolium, inner salt; MTS] and an electron coupling reagent (phenazine methosulfate) PMS. MTS is bioreduced by cells into a formazan product that is soluble in tissue culture medium. The absorbance of the formazan product at 490 nm can be measured directly from assay plates without additional processing. The quantity of formazan product as measured by the amount of 490 nm absorbance is directly proportional to the number of living cells in culture. Cells were seeded into 96-well or 384-well clear plates in a volume of 200 μL (96-well) or 50 μL (384-well) at optimized densities ranging from 1,000 to 40,000 cells per well for 96-well plates or 1,200 to 25,000 cells per well for 384-well plates depending on cell-line. After 4-6 hr recovery, serially diluted compounds in DMSO were added to the cells using (0.1% v/v final DMSO concentration). Cells were then grown at 37° C. in a humidified incubator with 5% CO2 for 72 hr. A 20:1 [3-(4,5-dimethylthiazol-2-yl)-5-(3-carboxymethoxyphenyl)-2-(4-sulfophenyl)-2H-tetrazolium](MTS):phenazine methosulfate (PMS) solution in DPBS was made immediately before use, added to each well, and cells were incubated for 1.5 hr at 37° C. The absorbance at 490 nm was then measured using a platereader. Absorbance values were normalized as percent of control (cells incubated in the presence of 0.1% v/v DMSO). Sigmoidal dose-response curves were plotted using log(inhibitor) vs. response—Variable slope (four parameters) model with a top value constrained to 100% (GraphPad Prism version 6.00 for Windows, GraphPad Software, La Jolla California USA). […] Curves for compounds that reached a plateau were matched exactly to the measurement points. […]

Test [5] has as its system SU-DHL-6. Briefly: MTS cell proliferation assay, SU-DHL-6. The format is cell-based. To be noted: Homo sapiens; SU-DHL-6, 72 hr. As for the experimental part: as §1

As to `C[C@H](NC(=O)c1nc(C#N)cnc1NCc1ccc(-c2cnc3[nH]nc(N)c3n2)cc1)c1ccc(F)c(F)c1` [Compound 1, 3-[4-(3-Amino-1H-pyrazolo[3,4-b]pyrazin-5-yl)-benzylamino]-6-cyano-pyrazine-2-carboxylic acid [1-(3,4-difluoro-phenyl)-ethyl]-amide], the “PIF-tide binding to PDK1 (fluorescence polarization, words)” value in test [1] is “significant inhibition of PIF-tide binding”. Besides, the EC50 came to 5 nM in test [2], 108 nM in test [3], 222 nM in test [4] and 572 nM in test [5].

Take `CNc1n[nH]c2ncc(-c3ccc(CNc4ncc(C#N)nc4C(=O)N[C@@H](C)c4ccc(F)c(F)c4)cc3)cc12` [Compound 2, 6-Cyano-3-[4-(3-methylamino-1H-pyrazolo[3,4-b]pyridin-5-yl)-benzylamino]-pyrazine-2-carboxylic acid [1-(3,4-difluoro-phenyl)-ethyl]-amide]: the “PIF-tide binding to PDK1 (fluorescence polarization, words)” value in test [1] is on record as “significant inhibition of PIF-tide binding”. Further, the EC50 in test [2] amounted to 7 nM; in test [3], 56 nM; in test [4], 182 nM; in test [5], 476 nM.
